In US6416987B1, “Mutants of thymidylate synthase and uses thereof” (Sloan Kettering Institute for Cancer Research, priority 1997, dated 2002):
Read-outs that look alike come from different tables or passages of the source.

Tests used:
[1] = tested on: murine bone marrow cells infected with Wt TS vector; experiment: CFU-GM assay, marrow infected with Wt TS retroviral vector; assay type: cell-based
[2] = tested on: mouse bone marrow cells transfected with mutant TS (TS175); experiment: CFU-GM / HPPCFU-C assay, marrow transfected with plasmid TS175; assay type: cell-based
Protocol: (§1) DNA into Mouse Bone Marrow Progenitor Cells Twenty micrograms of plasmid DNA (TS161 or TS175) and ten micrograms of DOTAP were diluted to 100 μl with HBS buffer and incubated at room temperature for 10 minutes. The mixture was added to 2×10^6 mouse bone marrow cells suspended in 0.5 ml of IMDM medium (in a 35 mm culture dish). After a 4 hour incubation at 37° C., 2 ml of IMDM with 30% FBS was added to each dish and the incubation was continued for 24 hours. […] Transfected cells prepared as described above were distributed into 10×35 mm dishes (3×10^5 cells in […] IMDM media/dish). […] Drug was added at the indicated concentration to each dish and the cells were cultured at 37° C. (5% CO2) for 10-14 days.

[3] = target: TS-negative FSthy21 cells transfected with wild-type human TS cDNA (Homo sapiens, UniProt P04818, P2L, cells depend on it); experiment: Growth inhibition assay (alamar Blue), TS-negative cells transfected with wild-type human TS cDNA; assay type: cell-based, mouse; settings: Tomudex, 7-day exposure, read-out: IC50 values
Chain of TS-negative FSthy21 cells transfected with wild-type human TS cDNA (P04818 whole entry P2L): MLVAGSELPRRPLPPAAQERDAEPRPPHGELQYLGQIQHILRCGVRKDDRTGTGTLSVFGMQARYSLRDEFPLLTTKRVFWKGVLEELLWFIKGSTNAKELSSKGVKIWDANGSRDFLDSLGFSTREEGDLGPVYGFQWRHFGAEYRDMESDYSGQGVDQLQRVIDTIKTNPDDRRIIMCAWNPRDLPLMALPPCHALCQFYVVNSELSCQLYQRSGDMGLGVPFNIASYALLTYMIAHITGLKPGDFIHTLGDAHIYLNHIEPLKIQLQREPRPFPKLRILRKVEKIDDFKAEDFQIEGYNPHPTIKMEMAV

TS = TS (Homo sapiens, UniProt P04818); settings: enzyme assays; cited from earlier work
Chain of TS (P04818 whole entry): as the sequence (P04818 whole entry P2L) above, with L2P counted along it

FPGS = FPGS (Homo sapiens, UniProt Q05932); settings: cited from earlier work
Chain of FPGS (Q05932 43-587, species assumed): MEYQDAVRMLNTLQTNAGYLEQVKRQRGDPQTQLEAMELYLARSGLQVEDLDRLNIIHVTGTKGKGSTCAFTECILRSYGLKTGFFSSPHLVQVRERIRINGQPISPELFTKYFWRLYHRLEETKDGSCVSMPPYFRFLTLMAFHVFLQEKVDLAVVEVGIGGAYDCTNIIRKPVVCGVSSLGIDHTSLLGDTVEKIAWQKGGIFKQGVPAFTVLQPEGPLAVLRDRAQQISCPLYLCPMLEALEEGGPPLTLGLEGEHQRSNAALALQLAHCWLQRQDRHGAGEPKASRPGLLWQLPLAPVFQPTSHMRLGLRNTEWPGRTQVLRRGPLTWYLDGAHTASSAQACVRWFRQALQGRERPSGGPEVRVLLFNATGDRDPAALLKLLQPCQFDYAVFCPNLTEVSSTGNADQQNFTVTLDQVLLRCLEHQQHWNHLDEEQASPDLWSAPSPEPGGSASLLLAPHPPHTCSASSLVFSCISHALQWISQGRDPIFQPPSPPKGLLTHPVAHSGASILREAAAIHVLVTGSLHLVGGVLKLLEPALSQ

[4] = target: TS-negative FSthy21 cells transfected with I108A mutant human TS cDNA (Homo sapiens, UniProt P04818, P2L/I108A, cells depend on it); experiment: Growth inhibition assay (alamar Blue), I108A transfectants; settings: read-out: IC50 values, Tomudex, 7-day exposure
Chain of TS-negative FSthy21 cells transfected with I108A mutant human TS cDNA (P04818 whole entry P2L/I108A): as the sequence (P04818 whole entry P2L) above, with I108A counted along it
Protocol: The mouse TS-negative FSthy21 cells were used as the host for DNA transfections. This cell line, which is a TS-deficient derivative of mouse FM3A cells, was routinely maintained in MEM medium supplemented with 10% fetal bovine serum and 10×10^−5 M thymidine. Transfections were performed by DOTAP, using 10 μg of DNA/culture. Four days after transfection, cells were placed in selective medium, which contain no thymidine and reduced folate. Colonies having the ability to grow in the absence of thymidine were pooled and propagated as a mass culture.
Logarithmically growing suspension mouse TS-20 negative FSthy21 cells transfected with wild-type or variant human TS cDNA were seeded in 96-well plates at 1,000 cells/well in 180 μl of complete medium. […] Cell viability was measured by the alamar Blue™ assay. This method incorporates an oxidation-reduction (REDOX) indicator that both fluoresces and changes color in response to chemical reduction of growth medium resulting from cell growth. To above 96-well cultured cells, 25 μl of Alamar Blue (Alamar, Sacramento, Calif.) (10% of incubation volume) were added according to the manufacturer's instructions. The culture 96-well plates were then incubated at 37° C. for 4 hours. Viable cells induce chemical reduction of the media which results in a change in REDOX color from blue to red. The intensity of red color (and fluoresces) is proportional to the viable cells. After incubation, fluorescence is was read at 530-560 nm excitation wavelength and 590 nm emission wavelength by an automated plate reader (model EL340; Bio-Tek). Drug concentrations needed to reduce cell growth by 50% (IC50 values) were determined graphically by plotting of cell growth verses inhibitor concentration.
The effect of three antifolates and FdUrd on the growth characteristics of transfectants that stably express various TS proteins was evaluated by cytotoxicity studies. Cell growth was measured by the alamar blue assay. IC50 values were calculated as the concentration of inhibitor required to inhibit growth by 50% compared to wild-type transfected cells grown under identical conditions.

[5] = tested on: mouse bone marrow cells (N.B.M.); experiment: CFU-GM / HPPCFU-C assay, N.B.M.; assay type: cell-based
[6] = tested on: murine bone marrow cells infected with I108A mut-TS vector; experiment: CFU-GM assay, marrow infected with I108A mut-TS retroviral vector; assay type: cell-based
From the text: (§2) The following tables 15-17 summarize additional proof that these mutants confer resistance to chemotherapeutic agents by increasing the number of drug resistant CFU-GM colonies formed by murine bone marrow cells infected with retroviral vectors containing these mutant TS cDNAs.

[7] = tested on: mouse bone marrow cells transfected with wild type TS (TS161); experiment: CFU-GM / HPPCFU-C assay, marrow transfected with plasmid TS161; assay type: cell-based
Protocol: as §1

Normal Bone Marrow cells = experiment: CFU-GM assay, Normal Bone Marrow (retroviral vector study); assay type: cell-based, murine
From the text: as §2

cell growth = settings: cited from earlier work

With Cc1nc2ccc(CN(C)c3ccc(C(=O)N[C@@H](CCC(=O)O)C(=O)O)s3)cc2c(=O)[nH]1 [Tomudex, N-(5-[N-(3,4-dihydro-2-methyl-4-oxoquinazolin-6-ylmethyl)-N-methylamino-]-2-thenoyl)-L-glutamic acid] the CFU-C ([1]; Tomudex 1 × 10^−8 M) was 33, the “CFU-C, % in parentheses” value ([1]; Tomudex 1 × 10^−8 M) was 20% and the HPPCFU-C ([1]; Tomudex 1 × 10^−8 M) was 10. The “HPPCFU-C, % in parentheses” value ([1]; Tomudex 1 × 10^−8 M) was 23%, the CFU-C ([1]; Tomudex 2 × 10^−8 M) was 10 and the “CFU-C, % in parentheses” value ([1]; Tomudex 2 × 10^−8 M) was 6%. For the same compound, the CFU-GM colonies ([2]; tomudex 1 × 10^−8 M) was 64, the “CFU-GM colonies, % in parentheses” value ([2]; tomudex 1 × 10^−8 M) was 44% and the HPPCFU-C colonies ([2]; tomudex 1 × 10^−8 M) was 9. The “HPPCFU-C colonies, % in parentheses” value ([2]; tomudex 1 × 10^−8 M) was 6%, the CFU-GM colonies ([2]; tomudex 2 × 10^−8 M) was 14 and the “CFU-GM colonies, % in parentheses” value ([2]; tomudex 2 × 10^−8 M) was 10%. For the same compound, the GI50 ([3]; wild-type/clone (1) [161-1]) was 2.37 ± 0.18 nM, the GI50 ([3]; wild-type/clone (2) [161-2]) was 1.8 ± 0.47 nM and the GI50 ([3]; wild-type/clone (3) [161-3]) was 3.37 ± 0.34 nM. The “less potent as a TS inhibitor than CB3717” value (TS) was 20 times, the “affinity for FPGS higher than that of CB3717” value (FPGS) was 30 times and the GI50 ([4]; 1108A/clone (1) [175-1]) was 97.9 ± 17.1 nM. It also gave a GI50 ([4]; 1108A/clone (2) [175-2]) of 76.8 ± 7.3 nM, a GI50 ([4]; 1108A/clone (3) [175-3]) of 174 ± 7 nM and a CFU-GM colonies ([5]; tomudex 1 × 10^−8 M) of 14. The “CFU-GM colonies, % in parentheses” value ([5]; tomudex 1 × 10^−8 M) was 17%, the HPPCFU-C colonies ([5]; tomudex 1 × 10^−8 M) was 0 and the CFU-GM colonies ([5]; tomudex 2 × 10^−8 M) was 0. For the same compound, the CFU-C ([6]; Tomudex 1 × 10^−8 M) was 53, the “CFU-C, % in parentheses” value ([6]; Tomudex 1 × 10^−8 M) was 36% and the HPPCFU-C ([6]; Tomudex 1 × 10^−8 M) was 26. For the same compound, the “HPPCFU-C, % in parentheses” value ([6]; Tomudex 1 × 10^−8 M) was 53%, the CFU-C ([6]; Tomudex 2 × 10^−8 M) was 25 and the “CFU-C, % in parentheses” value ([6]; Tomudex 2 × 10^−8 M) was 15%. For the same compound, the CFU-GM colonies ([7]; tomudex 1 × 10^−8 M) was 28, the “CFU-GM colonies, % in parentheses” value ([7]; tomudex 1 × 10^−8 M) was 26% and the HPPCFU-C colonies ([7]; tomudex 1 × 10^−8 M) was 0. For the same compound, the CFU-GM colonies ([7]; tomudex 2 × 10^−8 M) was 0, the CFU-C (Normal Bone Marrow cells; Tomudex 1 × 10^−8 M) was 16 and the “CFU-C, % in parentheses” value (Normal Bone Marrow cells; Tomudex 1 × 10^−8 M) was 10%. For the same compound, the HPPCFU-C (Normal Bone Marrow cells; Tomudex 1 × 10^−8 M) was 0, the CFU-C (Normal Bone Marrow cells; Tomudex 2 × 10^−8 M) was 0 and the “more active in inhibiting cell growth than CB3717” value (cell growth) was 500 fold.
